Publication PMC12155096 (International Journal of Molecular Sciences, 2025)
Where a name gives a salt, the structure may show the parent alone. Read-outs that look alike come from different tables or passages of the source.

Tests used:
[1] = molecular target: T1, human CYP2C9 (Homo sapiens, UniProt P11712)
[2] = molecular target: T2, human CYP2C19 (Homo sapiens, UniProt P33261)
[3] = molecular target: human CYP2D6 (Homo sapiens, UniProt P10635)
[4] = molecular target: CYP3A4 (Homo sapiens, UniProt P08684)
[5] = molecular target: T3, human CYP1A2 (Homo sapiens, UniProt P05177); assay: biochemical
T3 sequence (P05177 1-516): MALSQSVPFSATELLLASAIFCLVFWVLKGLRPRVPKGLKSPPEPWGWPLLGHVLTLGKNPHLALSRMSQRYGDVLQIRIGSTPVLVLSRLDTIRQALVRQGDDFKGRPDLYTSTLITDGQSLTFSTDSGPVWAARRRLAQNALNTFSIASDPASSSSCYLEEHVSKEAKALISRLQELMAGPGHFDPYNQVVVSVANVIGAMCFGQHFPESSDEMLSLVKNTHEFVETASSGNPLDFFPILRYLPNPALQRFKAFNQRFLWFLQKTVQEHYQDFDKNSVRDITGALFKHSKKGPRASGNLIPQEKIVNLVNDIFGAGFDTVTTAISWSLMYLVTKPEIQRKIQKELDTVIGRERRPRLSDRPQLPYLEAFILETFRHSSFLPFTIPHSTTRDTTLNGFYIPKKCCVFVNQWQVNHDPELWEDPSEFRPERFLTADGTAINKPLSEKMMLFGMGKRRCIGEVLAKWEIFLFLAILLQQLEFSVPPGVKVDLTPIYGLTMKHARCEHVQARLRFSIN

[6] = molecular target: T1, human CYP2C9; assay: biochemical
[7] = molecular target: T2, human CYP2C19; assay: biochemical
[8] = molecular target: T3, human CYP1A2; settings: for CYP1A2 Efficacy (in parenthesis): human
[9] = CYP1A2 AC50 (half-maximal activity concentration)
[10] = CYP2C9 IC50 (half-maximal inhibitory concentration)
[11] = CYP2C9 AC50 (half-maximal activity concentration)
[12] = CYP2C19 AC50 (half-maximal activity concentration)
[13] = CYP1A2 IC50 (half-maximal inhibitory concentration)
[14] = CYP2C19 IC50 (half-maximal inhibitory concentration)

Sequence of CYP3A4 (P08684 whole entry): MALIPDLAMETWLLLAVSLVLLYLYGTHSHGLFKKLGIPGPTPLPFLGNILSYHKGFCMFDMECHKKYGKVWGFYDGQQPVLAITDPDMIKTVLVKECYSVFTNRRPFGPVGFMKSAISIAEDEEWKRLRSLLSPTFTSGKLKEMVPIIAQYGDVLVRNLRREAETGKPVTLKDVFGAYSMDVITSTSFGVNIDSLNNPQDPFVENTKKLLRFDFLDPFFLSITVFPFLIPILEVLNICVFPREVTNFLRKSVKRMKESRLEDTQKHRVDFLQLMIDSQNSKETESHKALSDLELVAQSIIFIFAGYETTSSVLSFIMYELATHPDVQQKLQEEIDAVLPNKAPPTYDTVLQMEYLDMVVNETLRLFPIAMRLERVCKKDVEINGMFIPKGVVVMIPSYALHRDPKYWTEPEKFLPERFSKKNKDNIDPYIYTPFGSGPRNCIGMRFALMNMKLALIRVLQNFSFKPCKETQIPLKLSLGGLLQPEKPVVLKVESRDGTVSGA
T1 sequence (P11712 whole entry): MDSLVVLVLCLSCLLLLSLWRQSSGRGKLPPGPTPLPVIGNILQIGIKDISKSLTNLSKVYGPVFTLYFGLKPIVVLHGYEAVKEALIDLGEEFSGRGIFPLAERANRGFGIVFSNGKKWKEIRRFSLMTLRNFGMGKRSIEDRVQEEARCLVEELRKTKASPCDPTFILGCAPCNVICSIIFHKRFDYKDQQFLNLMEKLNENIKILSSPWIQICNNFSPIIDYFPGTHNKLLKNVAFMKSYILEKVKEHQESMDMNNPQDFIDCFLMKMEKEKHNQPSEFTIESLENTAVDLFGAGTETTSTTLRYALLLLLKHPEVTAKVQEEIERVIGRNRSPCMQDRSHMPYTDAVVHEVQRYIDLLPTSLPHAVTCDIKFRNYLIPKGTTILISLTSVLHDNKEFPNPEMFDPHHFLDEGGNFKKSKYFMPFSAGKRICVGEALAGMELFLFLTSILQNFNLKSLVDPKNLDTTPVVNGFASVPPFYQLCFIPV
Sequence of human CYP2D6 (P10635 whole entry): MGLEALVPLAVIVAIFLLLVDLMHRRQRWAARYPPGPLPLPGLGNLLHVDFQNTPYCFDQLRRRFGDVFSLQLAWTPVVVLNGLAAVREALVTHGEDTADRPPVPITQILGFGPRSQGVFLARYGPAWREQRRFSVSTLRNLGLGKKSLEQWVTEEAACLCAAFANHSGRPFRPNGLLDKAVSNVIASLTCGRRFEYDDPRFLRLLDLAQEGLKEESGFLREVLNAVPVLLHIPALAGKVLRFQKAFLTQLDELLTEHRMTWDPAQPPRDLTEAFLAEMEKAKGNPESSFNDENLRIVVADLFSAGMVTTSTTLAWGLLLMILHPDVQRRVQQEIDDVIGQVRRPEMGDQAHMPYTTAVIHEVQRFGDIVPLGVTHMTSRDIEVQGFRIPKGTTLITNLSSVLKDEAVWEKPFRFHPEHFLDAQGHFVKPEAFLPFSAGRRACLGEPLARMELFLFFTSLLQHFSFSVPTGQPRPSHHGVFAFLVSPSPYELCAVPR
T2 sequence (P33261 whole entry): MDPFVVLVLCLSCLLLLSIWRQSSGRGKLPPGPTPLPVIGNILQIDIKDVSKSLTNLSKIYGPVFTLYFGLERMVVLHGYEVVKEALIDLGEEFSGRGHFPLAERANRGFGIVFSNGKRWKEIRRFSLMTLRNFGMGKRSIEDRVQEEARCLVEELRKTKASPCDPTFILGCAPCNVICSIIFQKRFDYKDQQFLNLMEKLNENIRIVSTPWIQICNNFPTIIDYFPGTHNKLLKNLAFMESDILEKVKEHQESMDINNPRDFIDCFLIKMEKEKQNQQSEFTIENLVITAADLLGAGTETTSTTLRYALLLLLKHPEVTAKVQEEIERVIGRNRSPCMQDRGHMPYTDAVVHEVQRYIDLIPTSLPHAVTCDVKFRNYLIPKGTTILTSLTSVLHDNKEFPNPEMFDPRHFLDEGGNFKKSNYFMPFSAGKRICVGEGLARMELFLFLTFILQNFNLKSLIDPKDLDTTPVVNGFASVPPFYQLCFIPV

CCC(OC(C)=O)C(CC(C)NC)(c1ccccc1)c1ccccc1.Cl (stereo not shown)
CYP2C9 Efficacy (in parenthesis) [1]: 63.02 ± 38.37 (-35 ± 6) %
IC50 [1]: 63 µM
CYP2C19 Efficacy (in parenthesis) [2]: 21.99 ± 10.33 (-95 ± 7) %
IC50 [2]: 22 µM
CYP2D6 Efficacy (in parenthesis) [3]: 15.52 ± 2.14 (-95 ± 2) %
IC50 [3]: 15.5 µM

O=[N+]([O-])c1cccc2cccc([N+](=O)[O-])c12 [1,8-Dinitronaphthalene]
CYP2D6 AC50 (half-maximal activity concentration) [3]: Inconclusive inhibitor
CYP3A4 AC50 (half-maximal activity concentration) [4]: Inconclusive inhibitor

Cc1cc(O)c(Cl)c(C)c1Cl [2,4-Dichloro-3,5-dimethylphenol]
CYP2D6 AC50 (half-maximal activity concentration) [3]: Inactive
AC50 [5]: 14.4 µM
AC50 [6]: 9.3 µM
AC50 [7]: 71.9 µM

Brc1ccccc1-c1ccccc1 [2-Bromobiphenyl]
AC50 [5, 9]: 17 µM

CC(=O)c1ccc(O)cc1 [4-Hydroxyacetophenone]
CYP1A2 AC50 (half-maximal activity concentration) [8]: Inconclusive inhibitor
CYP2C19 AC50 (half-maximal activity concentration) [2]: Inactive
CYP2D6 AC50 (half-maximal activity concentration) [3]: Inactive
CYP3A4 AC50 (half-maximal activity concentration) [4]: Inactive
AC50 [6]: 36.2 µM

COc1c2occc2cc2ccc(=O)oc12 [8-Methoxypsoralen]
CYP2C9 Efficacy (in parenthesis) ([1]; human): 7.56 ± 2.14 (-95 ± 11) %
CYP2C19 Efficacy (in parenthesis) ([2]; human): 12.67 ± 4.61 (-156 ± 24) %
CYP2D6 Efficacy (in parenthesis) ([3]; human): 7.42 ± 0.95 (-106 ± 2) %
IC50 [6, 10]: 7.56 µM

CCC(=O)O[C@]1(C(=O)COC)[C@@H](C)C[C@H]2[C@@H]3CCC4=CC(=O)C=C[C@]4(C)[C@@]3(F)[C@@H](O)C[C@@]21C [Amelometasone]
IC50 [1]: 26 µM
IC50 [2]: 43.6 µM
IC50 [3]: 19.5 µM

O=C(Nc1ccc(S(=O)(=O)N2CCOCC2)cc1)c1cc(Cl)ccc1NS(=O)(=O)c1ccc(Cl)s1 [Ataciguat]
CYP2C9 Efficacy (in parenthesis) ([1]; human): 0.05 ± 0.01 (-98 ± 7) %
CYP2C19 Efficacy (in parenthesis) ([2]; human): 41.28 ± 3.36 (-131 ± 15) %
IC50 [6]: 0.05 ± 0.01 µM
IC50 [7]: 41.3 ± 3.36 µM

CCc1oc2ccccc2c1C(=O)c1cc(Br)c(O)c(Br)c1 [Benzbromarone]
AC50 [5, 9]: 28.9 µM

O=C(c1ccccc1)c1ccccc1 [Benzophenone]
AC50 [5, 9]: 13.7 µM
AC50 [6, 11]: 28.4 µM

O=C(OCc1ccccc1)c1ccccc1 [Benzyl benzoate]
AC50 [5, 9]: 14.9 µM
AC50 [6, 11]: 27.7 µM
AC50 [7, 12]: 21.3 µM

O=C1c2ccccc2C(=O)C1C(=O)C(c1ccccc1)c1ccc(Cl)cc1 (stereo not shown) [Cholorophacinone]
IC50 [1]: 0.9 µM

O=C(Nc1ccc(Cl)c(Cl)c1)C1CC1 [Cypromid]
CYP1A2 Efficacy (in parenthesis) [8]: 0.54 ± 0.08 (-97 ± 6) %
CYP2C9 Efficacy (in parenthesis) ([1]; human): 25.27 ± 7.04 (-70 ± 11) %
CYP2C19 Efficacy (in parenthesis) ([2]; human): 12.07 ± 3.02 (-106 ± 21) %
IC50 [5, 13]: 0.54 µM
IC50 [6, 10]: 25.3 µM
IC50 [7, 14]: 12.1 µM

O=C1c2ccccc2CCc2ccccc21 [Dibenzosuberone]
AC50 [5]: 1.58 µM
AC50 [6]: 33.4 µM
AC50 [7]: 8.39 µM

CCOC(=O)c1ccccc1C(=O)OCC [Diethyl phthalate]
AC50 [5, 9]: 3.24 µM

C[C@]12CC[C@@H]3c4ccc(O)cc4CC[C@H]3[C@@H]1CC[C@@H]2OC(=O)CCC1CCCC1 [Estradiol cypionate]
AC50 [5, 9]: 16.6 µM
AC50 [6, 11]: 16.1 µM
AC50 [7, 12]: 26 µM

CC(C)OC(=O)C(C)(C)Oc1ccc(C(=O)c2ccc(Cl)cc2)cc1 [Fenofibrate]
AC50 [5, 9]: 19.9 µM
AC50 [6, 11]: 3.17 µM

O=C(O)Cc1sc(-c2ccccc2)nc1-c1ccc(Cl)cc1 [Fentiazac]
AC50 [5, 9]: 24 µM
AC50 [6, 11]: 6.24 µM

CNCCC(Oc1ccc(C(F)(F)F)cc1)c1ccccc1 (stereo not shown) [Fluoxetine hydrochloride]
IC50 [5, 13]: 20.9 µM
IC50 [6, 10]: 34.2 µM

NS(=O)(=O)c1cc2c(cc1Cl)NCNS2(=O)=O [Hydrochlorothiazide]
CYP2C19 AC50 (half-maximal activity concentration) [2]: Inactive
CYP2D6 AC50 (half-maximal activity concentration) [3]: Inactive
CYP3A4 AC50 (half-maximal activity concentration) [4]: Inactive

CC(C)Oc1ccc2c(=O)c(-c3ccccc3)coc2c1 [Ipriflavone]
AC50 [5, 9]: 11.6 µM
AC50 [6, 11]: 20.1 µM

CN1CC[C@]23c4c5ccc(O)c4O[C@H]2[C@@H](O)C=C[C@H]3[C@H]1C5 [Morphine sulfate pentahydrate]
CYP1A2 AC50 (half-maximal activity concentration) [8]: Inactive
CYP2C9 AC50 (half-maximal activity concentration) [1]: Inactive
CYP2C19 AC50 (half-maximal activity concentration) [2]: Inactive

CCOc1cc(N)c(Cl)cc1C(=O)NCC1CN(Cc2ccc(F)cc2)CCO1 (stereo not shown) [Mosapride citrate]
IC50 [5, 13]: 1.14 µM
IC50 [7, 14]: 9 µM

Cc1ccccc1C(=O)Nc1ccc(C(=O)N2CCCC(N(C)C)c3ccccc32)cc1 (stereo not shown) [Mozavaptan]
CYP2C9 Efficacy (in parenthesis) ([1]; human): 26.02 ± 12.23 (-35 ± 0) %
IC50 [6, 10]: 26 µM

COc1ccnc2c1CCCCC2[S+]([O-])c1nc2ccccc2[nH]1 (stereo not shown) [Nepaprazole]
IC50 [5]: 14.9 ± 0.97 µM
IC50 [6]: 13.9 ± 1.59 µM
IC50 [7]: 8.96 ± 4.72 µM

O=C(NOCC1CC1)c1ccc(F)c(F)c1Nc1ccc(I)cc1Cl [PD-184352]
IC50 [5]: 14.4 ± 0.97 µM
IC50 [6]: 0.68 ± 0.17 µM
IC50 [7]: 0.39 ± 0.13 µM

CN1C(CSCC(F)(F)F)Nc2cc(Cl)c(S(N)(=O)=O)cc2S1(=O)=O (stereo not shown) [Polythiazide]
AC50 [6, 11]: 14.9 µM
AC50 [7, 12]: 22 µM

CCCOC(=O)c1cncn1C(C)c1ccccc1 (stereo not shown) [Propoxate]
IC50 [5, 13]: 18.9 µM
IC50 [6, 10]: 13.3 µM
IC50 [7, 14]: 3.09 µM

CCCc1ccc(OCC(=O)N2CCN(C(=O)COc3ccc(CCC)cc3OC)CC2)c(OC)c1 [Simetride]
IC50 [6]: 6.41 ± 6.45 µM
IC50 [7]: 17 ± 19.1 µM

O=C1OC(OC(=O)c2cccnc2Nc2cccc(C(F)(F)F)c2)c2ccccc21 (stereo not shown) [Talniflumate]
AC50 [5]: 10 ± 5.3 µM
AC50 [6]: 5.56 ± 2.56 µM

CCCCCNC(=N)N/N=C/c1c[nH]c2ccc(OC)cc12 [Tegaserod maleate]
AC50 [5]: 4.12 ± 0.93 µM
AC50 [6]: 33.3 ± 14 µM

CCC(=O)O[C@H]1CC[C@H]2[C@@H]3CCC4=CC(=O)CC[C@]4(C)[C@H]3CC[C@]12C [Testosterone propionate]
AC50 [6, 11]: 30.9 µM
AC50 [7, 12]: 26 µM

CN(C)C(=S)SC(=S)N(C)C [Tetramethylthiuram monosulfide]
AC50 [5, 9]: 41.9 µM
AC50 [6, 11]: 24.3 µM
AC50 [7, 12]: 22.8 µM

Cc1c(Cl)cccc1Nc1ccccc1C(=O)O [Tolfenamic acid]
AC50 [5, 9]: 34.8 µM
AC50 [6, 11]: 21 µM

CC1(C)C(C=C(Cl)Cl)C1C(=O)OC(C#N)c1cccc(Oc2ccccc2)c1 (stereo not drawn) [alpha-Cypermethrin]
AC50 [6, 11]: 3.56 µM
AC50 [7, 12]: 6.44 µM

Clc1ccc(C(c2ccc(Cl)cc2)C(Cl)(Cl)Cl)cc1 [p,p'-DDT]
CYP1A2 Efficacy (in parenthesis) [8]: 9.36 ± 3.19 (-74 ± 16) %
CYP2C9 Efficacy (in parenthesis) ([1]; human): 4.33 ± 1.82 (-100 ± 9) %
CYP2C19 Efficacy (in parenthesis) ([2]; human): 0.04 ± 0.02 (-132 ± 4) %
IC50 [5, 13]: 9.36 µM
IC50 [6, 10]: 4.33 µM
IC50 [7, 14]: 0.04 µM

Fc1ccc([C@@H]2CCNC[C@H]2COc2ccc3c(c2)OCO3)cc1 [paroxetine, reference compound]
IC50 [5, 13]: 15.2 µM

c1ccc2[nH]c(-c3cscn3)nc2c1 [thiabendazole, reference compound]
IC50 ([5]; IC50 CYP1A2 assay): 2.1 µM

CC(c1cc2ccccc2s1)N(O)C(N)=O (stereo not shown) [zileuton, reference compound]
IC50 [5]: 5.3 µM

Cresyl diphenyl phosphate
AC50 [8]: 8.9 µM
AC50 [1]: 6.19 µM
AC50 [2]: 4.18 µM
CYP2D6 AC50 (half-maximal activity concentration) [3]: Inactive
